Target: T1, PI3Kδ (PI3 Kd) (Homo sapiens, UniProt O00329)
T1 construct: purchased Millipore
Assay: PI3K HTRF enzymatic inhibition assay (cell-free), PI3Kd
Assay type: biochemical
Description: PI3K α, β, δ and γ Enzymatic Inhibition Assays
Compounds were screened for their ability to inhibit PI3Kα (PI3Kα), PI3Kβ (PI3 Kb), PI3Kδ (PI3 Kd) and PI3Kγ (PI3 Kg) using a cell-free based PI3K HTRF™ assay (Millipore, ref. #33-017) All reagents to perform the reactions were prepared according to the manufacturer protocol. All PI3K enzymes were recombinant and were purchased at Millipore.
These concentrations were final in the assay. • 3) A reservoir plate containing Adenosine TriPhosphate (ATP) diluted in the Millipore kit buffer was prepared for each isoform. […] Incubation was done for 8 minutes (for all four isoforms) then the reaction was stopped by addition of the Stop solution. The Detection solution was added. These solutions were prepared previously according to the kit specifications.

T1 sequence (O00329 whole entry): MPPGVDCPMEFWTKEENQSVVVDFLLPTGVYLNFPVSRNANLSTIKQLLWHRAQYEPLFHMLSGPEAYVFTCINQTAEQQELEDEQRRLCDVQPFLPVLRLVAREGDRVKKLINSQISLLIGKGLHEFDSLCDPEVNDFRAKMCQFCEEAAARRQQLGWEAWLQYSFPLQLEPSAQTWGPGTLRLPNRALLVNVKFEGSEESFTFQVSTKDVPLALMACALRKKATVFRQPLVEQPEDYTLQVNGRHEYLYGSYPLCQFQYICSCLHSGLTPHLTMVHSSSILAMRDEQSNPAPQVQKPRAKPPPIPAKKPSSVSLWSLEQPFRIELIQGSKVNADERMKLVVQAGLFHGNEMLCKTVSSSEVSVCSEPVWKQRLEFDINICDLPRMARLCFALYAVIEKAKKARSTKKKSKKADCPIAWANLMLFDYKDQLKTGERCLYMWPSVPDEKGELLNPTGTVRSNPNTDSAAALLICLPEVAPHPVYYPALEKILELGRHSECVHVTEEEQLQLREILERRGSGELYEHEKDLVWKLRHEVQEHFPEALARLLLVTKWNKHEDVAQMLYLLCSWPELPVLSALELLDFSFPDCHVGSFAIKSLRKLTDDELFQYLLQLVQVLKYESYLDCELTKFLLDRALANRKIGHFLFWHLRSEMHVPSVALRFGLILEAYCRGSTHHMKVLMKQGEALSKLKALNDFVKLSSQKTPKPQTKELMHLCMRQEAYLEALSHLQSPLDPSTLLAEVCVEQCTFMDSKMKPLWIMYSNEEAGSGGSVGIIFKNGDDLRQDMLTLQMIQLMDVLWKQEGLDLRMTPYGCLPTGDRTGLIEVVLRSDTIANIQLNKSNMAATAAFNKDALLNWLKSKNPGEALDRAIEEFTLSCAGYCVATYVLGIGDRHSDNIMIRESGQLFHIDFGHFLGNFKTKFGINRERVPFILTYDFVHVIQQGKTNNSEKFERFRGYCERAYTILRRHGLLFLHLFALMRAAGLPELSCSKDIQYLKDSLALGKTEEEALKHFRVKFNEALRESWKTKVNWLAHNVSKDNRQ
T1 sequence (P27986 whole entry partner): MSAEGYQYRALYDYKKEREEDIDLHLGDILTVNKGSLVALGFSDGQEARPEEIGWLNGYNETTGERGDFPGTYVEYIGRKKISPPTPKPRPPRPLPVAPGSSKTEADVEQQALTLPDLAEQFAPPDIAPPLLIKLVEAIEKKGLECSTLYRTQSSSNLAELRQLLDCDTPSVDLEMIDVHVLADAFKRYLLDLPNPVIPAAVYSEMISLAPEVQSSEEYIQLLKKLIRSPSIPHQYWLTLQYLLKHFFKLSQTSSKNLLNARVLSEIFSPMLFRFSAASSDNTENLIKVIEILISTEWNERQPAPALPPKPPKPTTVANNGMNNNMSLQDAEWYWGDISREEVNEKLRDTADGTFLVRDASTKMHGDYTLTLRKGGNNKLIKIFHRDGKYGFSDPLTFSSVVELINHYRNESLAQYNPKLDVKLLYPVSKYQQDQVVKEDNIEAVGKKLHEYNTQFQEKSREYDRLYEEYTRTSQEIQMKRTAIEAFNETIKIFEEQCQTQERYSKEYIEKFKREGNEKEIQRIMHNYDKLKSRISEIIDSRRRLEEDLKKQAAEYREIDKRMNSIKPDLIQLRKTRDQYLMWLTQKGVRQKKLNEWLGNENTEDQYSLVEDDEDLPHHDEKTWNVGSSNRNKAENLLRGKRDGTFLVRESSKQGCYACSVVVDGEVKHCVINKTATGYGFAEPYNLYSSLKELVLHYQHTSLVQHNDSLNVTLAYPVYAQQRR

IC50 | Structure (SMILES)
8 nM | C[C@H](Nc1ncnc(N)c1C#N)c1nn2cccc2c(=O)n1C1CCC1 [Example 138, (S)-4-Amino-6-(1-(3-cyclobutyl-4-oxo-3,4-dihydropyrrolo[1,2-f][1,2,4]triazin-2-yl)ethylamino)pyrimidine-5-carbonitrile]
5 nM | C[C@H](Nc1ncnc(N)c1C#N)c1nn2ccc(Br)c2c(=O)[nH]1 [Example 142, (S)-4-Amino-6-(1-(5-bromo-4-oxo-3,4-dihydropyrrolo[1,2-f][1,2,4]triazin-2-yl)ethylamino)pyrimidine-5-carbonitrile]
1 nM | C[C@H](Nc1ncnc(N)c1C#N)c1nn2ccc(Br)c2c(=O)n1-c1ccccc1 [Example 144, (S)-4-Amino-6-(1-(5-bromo-4-oxo-3-phenyl-3,4-dihydropyrrolo[1,2-f][1,2,4]triazin-2-yl)ethylamino)pyrimidine-5-carbonitrile]
747 nM | CCCNC(=O)c1ccn2nc([C@H](C)Nc3ncnc(N)c3C#N)n(-c3ccccc3)c(=O)c12 [Example 152, (S)-2-(1-(6-Amino-5-cyanopyrimidin-4-ylamino)ethyl)-4-oxo-3-phenyl-N-propyl-3,4-dihydropyrrolo[1,2-f][1,2,4]triazine-5-carboxamide]
66 nM | N#Cc1c(N)ncnc1N[C@@H](CO)c1nn2cccc2c(=O)n1-c1cc(F)cc(F)c1 [Example 157, (R)-4-Amino-6-(1-(3-(3,5-difluorophenyl)-4-oxo-3,4-dihydropyrrolo[1,2-f][1,2,4]triazin-2-yl)-2-hydroxyethylamino)pyrimidine-5-carbonitrile]
43 nM | Cc1ccccc1-n1c(CNc2ncnc(N)c2C#N)nn2cccc2c1=O [Example 158, 4-Amino-6-((4-oxo-3-o-tolyl-3,4-dihydropyrrolo[1,2-f][1,2,4]triazin-2-yl)methylamino)pyrimidine-5-carbonitrile]
35 nM | C[C@H](Nc1ncnc(N)c1C#N)c1nn2ccc(CCO)c2c(=O)n1-c1ccccc1 [Example 159, (S)-4-Amino-6-(1-(5-(2-hydroxyethyl)-4-oxo-3-phenyl-3,4-dihydropyrrolo[1,2-f][1,2,4]triazin-2-yl)ethylamino)pyrimidine-5-carbonitrile]
67 nM | CCCOC(=O)c1ccn2nc(C(C)Nc3ncnc(N)c3C#N)n(-c3ccccc3)c(=O)c12 [Example 164, (S)-Propyl 2-(1-(6-amino-5-cyanopyrimidin-4-ylamino)ethyl)-4-oxo-3-phenyl-3,4-dihydropyrrolo[1,2-f][1,2,4]triazine-5-carboxylate]
670 nM | N#Cc1c(N)ncnc1N[C@@H](CCO)c1nn2cccc2c(=O)[nH]1 [Example 165, (S)-4-Amino-6-(3-hydroxy-1-(4-oxo-3,4-dihydropyrrolo[1,2-f][1,2,4]triazin-2-yl)propylamino)pyrimidine-5-carbonitrile]
6 nM | C[C@H](Nc1ncnc(N)c1C#N)c1nn2ccc(Br)c2c(=O)n1-c1cccc(C(F)(F)F)c1 [Example 169, (S)-4-Amino-6-(1-(5-bromo-4-oxo-3-(3-(trifluoromethyl)phenyl)-3,4-dihydropyrrolo[1,2-f][1,2,4]triazin-2-yl)ethylamino)pyrimidine-5-carbonitrile]
32 nM | C[C@H](Nc1ncnc(N)c1C#N)c1nn2ccc(C#N)c2c(=O)n1-c1cccc(C(F)(F)F)c1 [Example 176, (S)-2-(1-(6-Amino-5-cyanopyrimidin-4-ylamino)ethyl)-4-oxo-3-(3-(trifluoromethyl)phenyl)-3,4-dihydropyrrolo[1,2-f][1,2,4]triazine-5-carbonitrile]
7 nM | C[C@H](Nc1ncnc(N)c1C#N)c1nn2cccc2c(=O)n1-c1cccc(O)c1 [Example 179]

Reference: patent publication US9340547B2, “Pyrrolotriazinone derivatives as inhibitors P13K” (Almirall, S.A., priority 2011, dated 2016)
